Assay results as given in publication PMC5429621 (Scientific Reports, 2017).
Changes are numbered by the printed parent chain.

Columns and labels:
Experiment in all cases: two-electrode voltage clamp, Xenopus oocytes
Type in all cases: cell-based
[1] = target: T1, hP2X7-2Nβ/P2X1 chimera 279–285 (Homo sapiens, UniProt Q99572, DEL279-281/I21V/M24R/N16P/N25R/N284E/Q22R/R20V/S23N/T19I/T282Y/T283E/V285K/Y26L); conditions: 279–285 chimera; relative to P2X7-2Nβ
T1 construct: expressed in transfected cells; host or cells: Xenopus laevis oocytes (cRNA injected)
T1 sequence (Q99572 with tags, fused parts or gaps N16P/T19I/R20V/I21V/Q22R/S23N/M24R/N25R/Y26L/DEL279-281/T282Y/T283E/N284E/V285K): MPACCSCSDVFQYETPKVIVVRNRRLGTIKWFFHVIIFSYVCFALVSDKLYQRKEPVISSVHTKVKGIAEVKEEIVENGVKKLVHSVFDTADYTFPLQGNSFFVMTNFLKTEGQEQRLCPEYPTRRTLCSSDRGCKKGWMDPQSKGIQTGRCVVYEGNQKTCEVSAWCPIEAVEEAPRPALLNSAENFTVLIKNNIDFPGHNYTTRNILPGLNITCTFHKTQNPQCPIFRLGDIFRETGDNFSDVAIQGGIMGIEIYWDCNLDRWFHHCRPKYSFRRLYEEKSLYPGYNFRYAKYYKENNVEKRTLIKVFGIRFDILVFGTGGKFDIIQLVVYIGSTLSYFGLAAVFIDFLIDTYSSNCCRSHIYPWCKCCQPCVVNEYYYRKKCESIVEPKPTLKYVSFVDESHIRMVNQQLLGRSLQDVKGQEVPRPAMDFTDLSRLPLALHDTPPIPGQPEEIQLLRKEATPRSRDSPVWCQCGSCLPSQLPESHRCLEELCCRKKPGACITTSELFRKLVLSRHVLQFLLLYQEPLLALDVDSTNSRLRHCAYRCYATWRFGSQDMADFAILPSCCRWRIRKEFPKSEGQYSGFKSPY
Description: (§1) The hP2X1R was a gift from Dr Lin-Hua Jiang (University of Leeds, UK) and the hP2X1R cDNA has been described previously. Chimeras were generated by megaprimer-mediated domain swapping. In addition to chimeras, point mutations, deletions and insertions were made using the QuikChange (Stratagene) or Q5 (New England Bioscience) mutagenesis kits. The production of the correct mutations and absence of coding errors was verified by DNA sequencing (Automated ABI Sequencing Service, University of Leicester, UK).
(§2) P2XR constructs were transcribed to produce sense-strand cRNA (mMessage mMachine, Ambion, Austin, TX). Manually defoliculated stage V Xenopus laevis oocytes were injected with 50 nl (50 ng) of cRNA using an Inject + Matic microinjector (J.A. Gaby, InjectMatic, Geneva, Switzerland) and stored at 16 °C in ND96 buffer (in mM, NaCl 96, KCl 2, CaCl2 1.8, MgCl2 1, sodium pyruvate 5, HEPES 5 (pH 7.6) supplemented with 50 µg/ml gentamycin and 50 µg/ml tetracycline). For electrophysiological recordings (3–7 days post-injection) oocytes were bathed in divalent free ND96 buffer (in mM, NaCl 96, KCl 2, sodium pyruvate 5, HEPES 5 and 0.1 flufenamic acid, pH 7.6).
(§3) ATP (sodium salt, Sigma) was applied via a U-tube perfusion system for 3 s at 3–5 minute intervals to allow reproducible responses to be recorded. […] To standardize for any change in ATP sensitivity at mutant receptors antagonists were co-applied with an EC90 concentration of ATP.
(§4) Concentration response curves were normalized to the maximal response and fitted with the Hill equation (variable slope) with GraphPad Prism 6 (Graphpad software, San Diego, CA). […] Individual concentration response curves were generated for individual experiments and statistical analysis was carried out on the data generated. In the figures the inhibition curves are fitted to the mean normalized data. Any significant differences were calculated by one-way analysis of variance, followed by Bonferroni’s test (using GraphPad Prism 6). Data are shown as mean ± SEM.

hP2X7-2Nβ K110Y = target: T2, hP2X7-2Nβ K110Y (Homo sapiens, UniProt Q99572, I21V/K110Y/M24R/N16P/N25R/Q22R/R20V/S23N/T19I/Y26L); conditions: relative to P2X7-2Nβ
T2 construct: expressed in transfected cells; host or cells: Xenopus laevis oocytes (cRNA injection)
T2 sequence (Q99572 1-595 N16P/T19I/R20V/I21V/Q22R/S23N/M24R/N25R/Y26L/K110Y): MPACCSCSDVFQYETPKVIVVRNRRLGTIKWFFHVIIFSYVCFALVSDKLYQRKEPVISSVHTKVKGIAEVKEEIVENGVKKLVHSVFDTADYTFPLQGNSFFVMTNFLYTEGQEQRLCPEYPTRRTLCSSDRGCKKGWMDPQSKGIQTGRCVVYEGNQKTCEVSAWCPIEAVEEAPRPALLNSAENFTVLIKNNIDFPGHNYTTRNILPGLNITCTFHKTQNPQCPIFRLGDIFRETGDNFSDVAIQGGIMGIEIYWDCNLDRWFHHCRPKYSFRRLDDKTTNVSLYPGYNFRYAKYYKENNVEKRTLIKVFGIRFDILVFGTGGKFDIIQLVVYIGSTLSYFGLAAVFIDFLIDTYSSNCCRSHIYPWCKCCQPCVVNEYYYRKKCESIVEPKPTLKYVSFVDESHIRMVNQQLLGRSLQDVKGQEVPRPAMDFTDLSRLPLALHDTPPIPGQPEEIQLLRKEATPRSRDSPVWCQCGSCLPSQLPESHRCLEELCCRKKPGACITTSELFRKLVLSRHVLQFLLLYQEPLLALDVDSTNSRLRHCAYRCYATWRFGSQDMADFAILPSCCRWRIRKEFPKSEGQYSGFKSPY
Description: as §1, §2, §3, §4

hP2X7-2Nβ K297G = target: T3, hP2X7-2Nβ K297G (Homo sapiens, UniProt Q99572, I21V/K297G/M24R/N16P/N25R/Q22R/R20V/S23N/T19I/Y26L); conditions: relative to P2X7-2Nβ
T3 construct: expressed in transfected cells; host or cells: Xenopus laevis oocytes (cRNA injection)
T3 sequence (Q99572 1-595 N16P/T19I/R20V/I21V/Q22R/S23N/M24R/N25R/Y26L/K297G): T2 sequence (Q99572 1-595 N16P/T19I/R20V/I21V/Q22R/S23N/M24R/N25R/Y26L/K110Y) with Y110K, K297G
Description: as §1, §2, §3, §4

Structure (SMILES) | increase in ATP sensitivity [1] | increase in sensitivity to AZ10606120 (hP2X7-2Nβ K110Y) | increase in AZ10606120 sensitivity (hP2X7-2Nβ K297G) [fold]
Nc1ncnc2c1ncn2[C@@H]1O[C@H](COP(=O)(O)OP(=O)(O)OP(=O)(O)O)[C@@H](O)[C@H]1O [ATP] | ~ 10 fold | – | –
Cl.Cl.O=C(CC12CC3CC(CC(C3)C1)C2)Nc1cccc2nc(NCCNCCO)ccc12 [AZ10606120, N-[2-[[2-[(2-Hydroxyethyl)amino]ethyl]amino]-5-quinolinyl]-2-tricyclo[3.3.1.13,7]dec-1-ylacetamide dihydrochloride] | – | ~ 100 fold | > 100
